In the CheMixHub viscosity set:
± gives the uncertainty stated by the source.

Test: xn = mol fraction of the nth substance listed

`C=CC(C)(O)CCC=C(C)C` (stereo not given) + CCCCCC gave a viscosity (298.15 K, 101.33 kPa, x2 = 0.0412) of 3.82 ± 0.042 mPa·s, a viscosity (298.15 K, 101.33 kPa, x2 = 0.103) of 3.13 ± 0.035 mPa·s and a viscosity (298.15 K, 101.33 kPa, x2 = 0.2546) of 1.952 ± 0.023 mPa·s. The viscosity (298.15 K, 101.33 kPa, x2 = 0.3645) was 1.418 ± 0.017 mPa·s, the viscosity (298.15 K, 101.33 kPa, x2 = 0.4938) was 0.995 ± 0.013 mPa·s and the viscosity (298.15 K, 101.33 kPa, x2 = 0.5828) was 0.792 ± 0.01 mPa·s. It also gave a viscosity (298.15 K, 101.33 kPa, x2 = 0.6605) of 0.637 ± 0.009 mPa·s, a viscosity (298.15 K, 101.33 kPa, x2 = 0.7376) of 0.525 ± 0.007 mPa·s and a viscosity (298.15 K, 101.33 kPa, x2 = 0.8069) of 0.445 ± 0.007 mPa·s. The viscosity (298.15 K, 101.33 kPa, x2 = 0.8815) was 0.372 ± 0.006 mPa·s, the viscosity (298.15 K, 101.33 kPa, x2 = 0.9366) was 0.33 ± 0.005 mPa·s and the viscosity (298.15 K, 101.33 kPa, x2 = 0.9766) was 0.306 ± 0.005 mPa·s.

Compound `ClC(Cl)=C(Cl)Cl` + CCCCCC has a viscosity (303.15 K, 101 kPa, x1 = 0.1642) of 0.358 ± 0.008 mPa·s, a viscosity (303.15 K, 101 kPa, x1 = 0.2468) of 0.388 ± 0.008 mPa·s and a viscosity (303.15 K, 101 kPa, x1 = 0.3358) of 0.432 ± 0.009 mPa·s. The viscosity (303.15 K, 101 kPa, x1 = 0.4336) was 0.471 ± 0.009 mPa·s, the viscosity (303.15 K, 101 kPa, x1 = 0.4782) was 0.494 ± 0.009 mPa·s and the viscosity (303.15 K, 101 kPa, x1 = 0.514) was 0.515 ± 0.009 mPa·s. The viscosity (303.15 K, 101 kPa, x1 = 0.6464) was 0.591 ± 0.009 mPa·s, the viscosity (303.15 K, 101 kPa, x1 = 0.7236) was 0.643 ± 0.008 mPa·s and the viscosity (303.15 K, 101 kPa, x1 = 0.8072) was 0.697 ± 0.008 mPa·s. It also gave a viscosity (303.15 K, 101 kPa, x1 = 0.9346) of 0.776 ± 0.008 mPa·s.

With `CCCCCCCC` + CCCCCCC the viscosity (293.15 K, 101 kPa, x2 = 0.2) was 0.511 ± 0.014 mPa·s, the viscosity (293.15 K, 101 kPa, x2 = 0.4) was 0.484 ± 0.013 mPa·s and the viscosity (293.15 K, 101 kPa, x2 = 0.6) was 0.458 ± 0.012 mPa·s. The viscosity (293.15 K, 101 kPa, x2 = 0.8) was 0.433 ± 0.012 mPa·s, the viscosity (293.15 K, 101.33 kPa, x2 = 0.07168) was 0.531 ± 0.004 mPa·s and the viscosity (293.15 K, 101.33 kPa, x2 = 0.1121) was 0.525 ± 0.004 mPa·s. For the same compound, the viscosity (293.15 K, 101.33 kPa, x2 = 0.1909) was 0.514 ± 0.004 mPa·s, the viscosity (293.15 K, 101.33 kPa, x2 = 0.2852) was 0.501 ± 0.004 mPa·s and the viscosity (293.15 K, 101.33 kPa, x2 = 0.3891) was 0.487 ± 0.004 mPa·s. For the same compound, the viscosity (293.15 K, 101.33 kPa, x2 = 0.4993) was 0.473 ± 0.004 mPa·s, the viscosity (293.15 K, 101.33 kPa, x2 = 0.5985) was 0.46 ± 0.003 mPa·s and the viscosity (293.15 K, 101.33 kPa, x2 = 0.6936) was 0.448 ± 0.003 mPa·s. It also gave a viscosity (293.15 K, 101.33 kPa, x2 = 0.7797) of 0.437 ± 0.003 mPa·s, a viscosity (293.15 K, 101.33 kPa, x2 = 0.8967) of 0.422 ± 0.003 mPa·s and a viscosity (293.15 K, 101.33 kPa, x2 = 0.9584) of 0.414 ± 0.003 mPa·s. It also gave a viscosity (298.15 K, 101.33 kPa, x2 = 0.1073) of 0.4942 ± 0.0071 mPa·s, a viscosity (298.15 K, 101.33 kPa, x2 = 0.2098) of 0.4774 ± 0.0069 mPa·s and a viscosity (298.15 K, 101.33 kPa, x2 = 0.406) of 0.4539 ± 0.0066 mPa·s. The viscosity (298.15 K, 101.33 kPa, x2 = 0.5089) was 0.4431 ± 0.0065 mPa·s, the viscosity (298.15 K, 101.33 kPa, x2 = 0.6081) was 0.4285 ± 0.0063 mPa·s and the viscosity (298.15 K, 101.33 kPa, x2 = 0.7052) was 0.4201 ± 0.0062 mPa·s. The viscosity (298.15 K, 101.33 kPa, x2 = 0.807) was 0.4103 ± 0.0061 mPa·s, the viscosity (298.15 K, 101.33 kPa, x2 = 0.9012) was 0.3958 ± 0.0059 mPa·s and the viscosity (303.15 K, 101.33 kPa, x2 = 0.1022) was 0.469 ± 0.004 mPa·s. For the same compound, the viscosity (303.15 K, 101.33 kPa, x2 = 0.199) was 0.458 ± 0.003 mPa·s, the viscosity (303.15 K, 101.33 kPa, x2 = 0.2324) was 0.454 ± 0.003 mPa·s and the viscosity (303.15 K, 101.33 kPa, x2 = 0.3088) was 0.445 ± 0.003 mPa·s. The viscosity (303.15 K, 101.33 kPa, x2 = 0.369) was 0.438 ± 0.003 mPa·s, the viscosity (303.15 K, 101.33 kPa, x2 = 0.5069) was 0.423 ± 0.003 mPa·s and the viscosity (303.15 K, 101.33 kPa, x2 = 0.5644) was 0.416 ± 0.003 mPa·s. For the same compound, the viscosity (303.15 K, 101.33 kPa, x2 = 0.6459) was 0.407 ± 0.003 mPa·s, the viscosity (303.15 K, 101.33 kPa, x2 = 0.7393) was 0.397 ± 0.003 mPa·s and the viscosity (303.15 K, 101.33 kPa, x2 = 0.799) was 0.391 ± 0.003 mPa·s. The viscosity (303.15 K, 101.33 kPa, x2 = 0.9128) was 0.379 ± 0.003 mPa·s, the viscosity (312.75 K, 100 kPa, x1 = 0.2) was 0.3426 ± 0.0044 mPa·s and the viscosity (313.15 K, 101 kPa, x2 = 0.2) was 0.407 ± 0.011 mPa·s. The viscosity (313.15 K, 101 kPa, x2 = 0.4) was 0.387 ± 0.01 mPa·s, the viscosity (313.15 K, 101 kPa, x2 = 0.6) was 0.368 ± 0.01 mPa·s and the viscosity (313.15 K, 101 kPa, x2 = 0.8) was 0.35 ± 0.009 mPa·s. The viscosity (313.15 K, 101.33 kPa, x2 = 0.05003) was 0.426 ± 0.003 mPa·s, the viscosity (313.15 K, 101.33 kPa, x2 = 0.09664) was 0.421 ± 0.003 mPa·s and the viscosity (313.15 K, 101.33 kPa, x2 = 0.1716) was 0.413 ± 0.003 mPa·s. It also gave a viscosity (313.15 K, 101.33 kPa, x2 = 0.212) of 0.409 ± 0.003 mPa·s, a viscosity (313.15 K, 101.33 kPa, x2 = 0.2687) of 0.404 ± 0.003 mPa·s and a viscosity (313.15 K, 101.33 kPa, x2 = 0.3937) of 0.392 ± 0.003 mPa·s. The viscosity (313.15 K, 101.33 kPa, x2 = 0.4963) was 0.382 ± 0.003 mPa·s, the viscosity (313.15 K, 101.33 kPa, x2 = 0.596) was 0.372 ± 0.003 mPa·s and the viscosity (313.15 K, 101.33 kPa, x2 = 0.6942) was 0.363 ± 0.003 mPa·s. The viscosity (313.15 K, 101.33 kPa, x2 = 0.7937) was 0.354 ± 0.003 mPa·s, the viscosity (313.15 K, 101.33 kPa, x2 = 0.9085) was 0.343 ± 0.003 mPa·s and the viscosity (313.15 K, 101.33 kPa, x2 = 0.9589) was 0.339 ± 0.003 mPa·s.

`CCCCCCCCCCCCCC` + CCCCCCC gave a viscosity (298 K, 101 kPa, x2 = 0.5) of 1.031 ± 0.027 mPa·s and a viscosity (318 K, 101 kPa, x2 = 0.5) of 0.7754 ± 0.021 mPa·s.
